Results published in patent publication US9969979B2, “Methods for producing cells having a phenotype of a primary human hepatocytes and compositions” (The Governors of the University of Alberta, priority 2012, dated 2018).

System: Huh7.5 cells
Test: Quantitative RT-PCR of hepatocyte differentiation markers in cultured Huh7.5 cells
Type: cell-based, human
Conditions: Huh7.5 cells grown 3 weeks, relative to FBS
Description: RNA was isolated from cells using Trizol, according to the instructions of the manufacturer. cDNA was produced from the RNA using Quantitect Reverse Transcription kit (Qiagen). Gene specific primer-probe sets were designed by Applied Biosystems. An Applied Biosystems 7900HT Fast Real-Time PCR system was used for the quantitation of gene products. Gene expression was calculated relative to HPRT according to Pfaffl (Pfaffl M W. Nucleic Acids Res 29: e45, 2001).
To further evaluate the effect of culturing cells in HS-containing medium, and to assess whether these cells underwent differentiation to a primary hepatocyte-like cell, level of expression of hepatocyte differentiation marker were assayed at 7 days and 21 days after transfer of Huh7.5 cells into HS-supplemented medium. After 7 days only minor changes in hepatocyte markers were observed. (FIG. 3A) However, after 21 days, the expression of the hepatic differentiation markers albumin and alpha1-antiTrypsin was increased approximately 4 fold in cells grown in human serum compared to FBS. The level of expression of these proteins is similar to the level of expression of human primary hepatocytes in culture.
DMSO, (dimethyl sulfoxide) has been reported to induce growth arrest in HuH-7 or -derived cells, and other hepatoma cells. (Sainz et al. (2006) J Virol 80: 10253-10257). […]

Which Albumin expression does the source give for `C[S+](C)[O-]` [DMSO, dimethyl sulfoxide] here?
Its Albumin expression is “slight increase”.
